# Assay results reported in patent publication US9513294B2, “Megastokes amino-triazolyl-BODIPY compounds and applications to live neuron staining and human serum albumin FA1 drug site probing” (National University of Singapore, priority 2012, dated 2016).
# Key:
# [1] = Absorbance and fluorescence emission spectra (SpectraMax M2); assay type: physicochemical; conditions: for λmax Absorp. (nm) / λmax Emission (nm): MKCA compound library; for λmax Absorp. (nm) / λmax Abs. (nm): absorbance maximum; for λmax Emission (nm) / λmax Em. (nm): fluorescence emission maximum; for λmax Abs. (nm) / λmax Em. (nm): MKAC compound library
# Description: BDC-8 (Blue): absorbance λmax=473 nm, emission λmax=585 nm; MK101-8 (Green): absorbance λmax=474 nm, emission λmax=563 nm; MKHA374-48 (Yellow): absorbance λmax=468 nm, λem=557 nm. The corresponding spectra of a reported BODIPY (BD-27; Red) are also included for comparison: absorbance λmax=551 nm, emission λmax=568 nm. The structures of BDC-8, MK101-8, MKHA374-48 and BD-27 are also depicted.
# (§1) ^1H-NMR, ^19F-NMR and ^13C-NMR spectra were recorded on Bruker ACF300 (300 MHz), DPX300 (300 MHz) and AMX500 (500 MHz) spectrometers. High resolution mass spectra (ESI) were obtained on a Finnigan/MAT 95XL-T spectrometer. Spectroscopic and quantum yield data were measured on a SpectraMax M2 spectrophotometer (Molecular Devices). Data analysis was performed using GraphPrism 5.0. Analytical characterization was performed on a HPLC-MS (Agilent-1200 series) with a DAD detector and a single quadrupole mass spectrometer (6130 series) with an ESI probe. Analytical HPLC method: eluents, A: H2O (0.1% HCOOH), B: CH3CN (0.1% HCOOH), gradient 5% B to 95% B (10 min). Reverse-phase Phenomenex C18 Luna column (4.6×50 mm^2, 3.5 […]), flow rate: 1 mL/min.
# [2] = Quantum yield measurements versus Acridine Yellow in EtOH; assay type: physicochemical; conditions: for φ (quantum yield): excitation 460 nm; for φ (%): quantum yield
# Description: as §1
# Quantum yields were calculated by measuring the integrated emission area of the fluorescent spectra and comparing to the area measured for Acridine Yellow in EtOH when excited at 460 nm (Φfluorescence^AcridineYellow=0.47). Quantum yields for the amino-triazolyl-BODIPYs were calculated using the equation below, where F represents the area of fluorescent emission, η is the refractive index of the solvent, and Abs is absorbance at the excitation wavelength selected for standards and samples. Emission was integrated between 510 and 700 nm.
smiles,measurement,setting,value
CCCc1cn(-c2ccc3n2[B-](F)(F)[N+]2=C(NCc4cc(OC)ccc4OC)C=CC2=C3c2ccc(N)cc2)nn1 [MK181-48],λmax Absorp.,"[1]; MK library, Table 5",473 nm
same,λmax Emission,"[1]; MK library, Table 5",563 nm
same,φ (quantum yield),"[2]; MK library, Table 5",0.50%
O=C(CCl)Nc1ccc(C2=C3C=CC(NCc4cc(F)cc(F)c4)=[N+]3[B-](F)(F)n3c2ccc3-n2cc(C3CC3)nn2)cc1 [MKCA412-4],λmax Absorp. (nm),[1],467 nm
same,λmax Emission (nm),[1],563 nm
same,φ (%),[2]; MKCA compound library,36.25%
CCCCCC(O)c1cn(-c2ccc3n2[B-](F)(F)[N+]2=C(N4CCCC4)C=CC2=C3c2ccc(NC(=O)CCl)cc2)nn1 (stereo not drawn) [MKCA215-69],λmax Absorp. (nm),[1],462 nm
same,λmax Emission (nm),[1],569 nm
same,φ (%),[2]; MKCA compound library,3.42%
CC1CN(C2=[N+]3C(=C(c4ccc(NC(=O)CCl)cc4)c4ccc(-n5cc(CCc6ccccc6)nn5)n4[B-]3(F)F)C=C2)CC(C)O1 (stereo not drawn) [MKCA20-19],λmax Absorp. (nm),[1],467 nm
same,λmax Emission (nm),[1],583 nm
same,φ (%),[2]; MKCA compound library,5.32%
CCCCCC(O)c1cn(-c2ccc3n2[B-](F)(F)[N+]2=C(NCc4ccccc4C)C=CC2=C3c2ccc(NC(C)=O)cc2)nn1 (stereo not drawn) [MKAC101-69],λmax Abs. (nm),[1],461 nm
same,λmax Em. (nm),[1],562 nm
same,φ (%),[2]; MKAC compound library,24.08%
O=C(CCl)Nc1ccc(C2=C3C=CC(N4CCCC4)=[N+]3[B-](F)(F)n3c2ccc3-n2cc(CCc3ccccc3)nn2)cc1 [MKCA215-19],λmax Absorp. (nm),[1],463 nm
same,λmax Emission (nm),[1],573 nm
same,φ (%),[2]; MKCA compound library,4.98%
O=C(CCl)Nc1ccc(C2=C3C=CC(N4CCCCC4)=[N+]3[B-](F)(F)n3c2ccc3-n2cc(CC3CCCCC3)nn2)cc1 [BDCCA-8],λmax Absorp.,"[1]; BDCCA library, Table 4",468 nm
same,λmax Emission,"[1]; BDCCA library, Table 4",589 nm
same,φ (quantum yield),"[2]; BDCCA library, Table 4",0.6%
CCCCCC(O)c1cn(-c2ccc3n2[B-](F)(F)[N+]2=C(N4CC(C)OC(C)C4)C=CC2=C3c2ccc(NC(=O)CCl)cc2)nn1 (stereo not drawn) [MKCA20-69],λmax Absorp. (nm),[1],469 nm
same,λmax Emission (nm),[1],586 nm
same,φ (%),[2]; MKCA compound library,3.23%
CC(=O)Nc1ccc(C2=C3C=CC(N4CCCC4)=[N+]3[B-](F)(F)n3c2ccc3-n2cc(CC(C)C)nn2)cc1 [MKAC215-43],λmax Abs. (nm),[1],461 nm
same,λmax Em. (nm),[1],565 nm
same,φ (%),[2]; MKAC compound library,1.83%
CCCCCC(O)c1cn(-c2ccc3n2[B-](F)(F)[N+]2=C(NCc4ccccc4C)C=CC2=C3c2ccc(N)cc2)nn1 (stereo not drawn) [MK101-69],λmax Absorp.,"[1]; MK library, Table 5",475 nm
same,λmax Emission,"[1]; MK library, Table 5",563 nm
same,φ (quantum yield),"[2]; MK library, Table 5",2.40%
CCOc1ccccc1CNC1=[N+]2C(=C(c3ccc(NC(=O)CCl)cc3)c3ccc(-n4cc(CCc5ccccc5)nn4)n3[B-]2(F)F)C=C1 [MKCA103-19],λmax Absorp. (nm),[1],464 nm
same,λmax Emission (nm),[1],563 nm
same,φ (%),[2]; MKCA compound library,36.82%
CN(Cc1ccccc1)Cc1cn(-c2ccc3n2[B-](F)(F)[N+]2=C(N4CCc5ccccc5C4)C=CC2=C3c2ccc(N)cc2)nn1 [MK66-18],λmax Absorp.,"[1]; MK library, Table 5",478 nm
same,λmax Emission,"[1]; MK library, Table 5",587 nm
same,φ (quantum yield),"[2]; MK library, Table 5",0.14%
CCOc1ccccc1CNC1=[N+]2C(=C(c3ccc(N)cc3)c3ccc(-n4cc(C5CCCC5)nn4)n3[B-]2(F)F)C=C1 [MK103-5],λmax Absorp.,"[1]; MK library, Table 5",473 nm
same,λmax Emission,"[1]; MK library, Table 5",564 nm
same,φ (quantum yield),"[2]; MK library, Table 5",2.01%
CC(=O)Nc1ccc(C2=C3C=CC(NCc4ccccc4C)=[N+]3[B-](F)(F)n3c2ccc3-n2cc(CC(C)C)nn2)cc1 [MKAC101-43],λmax Abs. (nm),[1],465 nm
same,λmax Em. (nm),[1],562 nm
same,φ (%),[2]; MKAC compound library,20.12%
COc1ccc(OC)c(CNC2=[N+]3C(=C(c4ccc(NC(C)=O)cc4)c4ccc(-n5cc(CN(C)Cc6ccccc6)nn5)n4[B-]3(F)F)C=C2)c1 [MKAC181-18],λmax Abs. (nm),[1],464 nm
same,λmax Em. (nm),[1],561 nm
same,φ (%),[2]; MKAC compound library,18.28%
CC1CN(C2=[N+]3C(=C(c4ccc(NC(=O)CCl)cc4)c4ccc(-n5cc(CC6CCCCC6)nn5)n4[B-]3(F)F)C=C2)CC(C)O1 (stereo not drawn) [MKCA20-8],λmax Absorp. (nm),[1],466 nm
same,λmax Emission (nm),[1],573 nm
same,φ (%),[2]; MKCA compound library,6.71%
